Measured values as given in ChEMBL document CHEMBL1153042, “Fatty acid amide hydrolase inhibitors. Surprising selectivity of chiral azetidine ureas” (Bioorg Med Chem Lett, 2009).

How the values were obtained:
[1] = target: T1, Fatty-acid amide hydrolase 1 (Homo sapiens, UniProt O00519); experiment: Inhibition of human FAAH incubated 1 hr prior to addition of arachidonyl-amino-methyl-coumarin amide
T1 sequence (O00519 whole entry): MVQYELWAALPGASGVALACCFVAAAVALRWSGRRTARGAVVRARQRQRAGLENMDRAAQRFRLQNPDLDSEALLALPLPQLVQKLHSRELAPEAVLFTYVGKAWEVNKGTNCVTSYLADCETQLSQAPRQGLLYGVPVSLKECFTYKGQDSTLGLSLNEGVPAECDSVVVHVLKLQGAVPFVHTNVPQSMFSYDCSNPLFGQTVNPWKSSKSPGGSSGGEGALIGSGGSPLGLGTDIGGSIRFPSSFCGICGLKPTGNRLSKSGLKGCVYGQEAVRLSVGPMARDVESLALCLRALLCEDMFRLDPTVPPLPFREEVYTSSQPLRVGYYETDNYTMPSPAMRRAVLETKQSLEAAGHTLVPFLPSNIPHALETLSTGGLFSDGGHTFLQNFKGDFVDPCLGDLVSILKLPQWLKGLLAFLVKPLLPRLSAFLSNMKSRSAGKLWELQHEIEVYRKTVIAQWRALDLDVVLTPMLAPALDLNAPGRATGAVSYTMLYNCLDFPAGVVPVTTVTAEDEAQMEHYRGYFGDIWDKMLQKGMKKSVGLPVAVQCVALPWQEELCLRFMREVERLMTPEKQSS

[2] = target: T1, Fatty-acid amide hydrolase 1; experiment: Inhibition of human FAAH incubated 3 hrs prior to addition of arachidonyl-amino-methyl-coumarin amide
[3] = target: T2, Fatty-acid amide hydrolase 1 (Rattus norvegicus, UniProt P97612); experiment: Inhibition of rat FAAH incubated 1 hr prior to addition of arachidonyl-amino-methyl-coumarin amide
T2 sequence (P97612 whole entry): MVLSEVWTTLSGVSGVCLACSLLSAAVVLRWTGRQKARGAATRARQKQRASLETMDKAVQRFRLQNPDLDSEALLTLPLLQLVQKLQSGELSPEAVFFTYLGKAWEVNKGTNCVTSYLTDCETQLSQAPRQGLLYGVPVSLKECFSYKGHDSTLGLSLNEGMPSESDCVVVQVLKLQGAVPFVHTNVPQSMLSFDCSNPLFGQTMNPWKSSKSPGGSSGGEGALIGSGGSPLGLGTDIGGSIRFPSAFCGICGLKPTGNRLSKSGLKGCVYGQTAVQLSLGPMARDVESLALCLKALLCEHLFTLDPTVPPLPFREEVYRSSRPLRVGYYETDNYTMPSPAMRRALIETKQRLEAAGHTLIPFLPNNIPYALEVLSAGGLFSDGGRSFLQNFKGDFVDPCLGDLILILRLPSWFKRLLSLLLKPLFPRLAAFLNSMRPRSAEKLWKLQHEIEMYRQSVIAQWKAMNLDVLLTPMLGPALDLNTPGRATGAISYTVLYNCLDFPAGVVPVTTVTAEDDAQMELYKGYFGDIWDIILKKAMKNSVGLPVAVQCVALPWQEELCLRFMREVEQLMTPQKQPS

[4] = target: T2, Fatty-acid amide hydrolase 1; experiment: Inhibition of rat FAAH incubated 3 hrs prior to addition of arachidonyl-amino-methyl-coumarin amide
[5] = target: Cannabinoid receptor 1 (Homo sapiens, UniProt P21554); experiment: Displacement of [3H]SR141716A from human CB1 receptor
Chain of Cannabinoid receptor 1 (P21554 whole entry): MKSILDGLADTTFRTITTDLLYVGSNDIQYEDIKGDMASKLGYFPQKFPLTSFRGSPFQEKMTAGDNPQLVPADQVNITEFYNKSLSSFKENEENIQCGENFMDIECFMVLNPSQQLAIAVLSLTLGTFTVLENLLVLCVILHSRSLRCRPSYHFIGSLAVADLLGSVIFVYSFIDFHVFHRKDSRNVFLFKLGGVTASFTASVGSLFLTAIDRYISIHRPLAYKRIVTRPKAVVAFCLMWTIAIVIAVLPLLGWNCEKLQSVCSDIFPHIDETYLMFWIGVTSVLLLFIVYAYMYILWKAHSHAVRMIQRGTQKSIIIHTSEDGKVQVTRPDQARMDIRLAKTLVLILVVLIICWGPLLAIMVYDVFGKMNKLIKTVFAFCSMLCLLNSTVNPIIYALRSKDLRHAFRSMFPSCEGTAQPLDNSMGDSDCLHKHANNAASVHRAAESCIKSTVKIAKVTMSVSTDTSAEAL

[6] = target: Cannabinoid receptor 2 (Homo sapiens, UniProt P34972); experiment: Displacement of [3H]CP-55940 from human CB2 receptor
Chain of Cannabinoid receptor 2 (P34972 whole entry): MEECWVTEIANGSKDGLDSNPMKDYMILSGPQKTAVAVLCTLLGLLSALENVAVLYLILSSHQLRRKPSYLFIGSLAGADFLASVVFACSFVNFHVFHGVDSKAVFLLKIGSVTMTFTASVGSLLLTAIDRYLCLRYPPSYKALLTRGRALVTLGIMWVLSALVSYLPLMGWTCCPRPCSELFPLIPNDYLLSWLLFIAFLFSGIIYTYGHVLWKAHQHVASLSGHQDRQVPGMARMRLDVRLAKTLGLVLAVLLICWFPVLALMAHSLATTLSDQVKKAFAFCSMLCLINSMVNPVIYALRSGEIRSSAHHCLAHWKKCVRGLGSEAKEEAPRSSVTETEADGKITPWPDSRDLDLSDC

IC50 [1] [nM] | IC50 [2] [nM] | IC50 [3] [nM] | IC50 [4] [nM] | Ki [5] [nM] | Ki [6] [nM] | Structure (SMILES)
140 | 78 | 1030 | 531 | 560 | 7190 | O=C(N1CCCCC1)N1CC(O[C@@H](c2ccc(Cl)cc2)c2cccnc2Cl)C1
> 10000 | > 10000 | > 10000 | > 10000 | < 10 | 10900 | O=C(N1CCCCC1)N1CC(O[C@H](c2ccc(Cl)cc2)c2cccnc2Cl)C1
291 | 188 |  |  | < 10 |  | O=C(N1CCCCC1)N1CC(OC(c2ccc(Cl)cc2)c2cccnc2Cl)C1 (racemic)
